This is an account of results in US11566002B2, “Substituted tetrahydrocyclopenta[C]pyrroles, substituted dihydropyrrolizines, analogues thereof, and methods using same” (priority 2018, dated 2023).

A word on the EC50: it is the concentration that produces a half-maximal response.

The first assay concerns HBV rcDNA. Kind of assay: HepDE19 assay with bDNA quantitation of HBV rcDNA. It counts as cell-based, hepatitis B virus. The settings on record: HepDE19 cells, Tet-free medium, 7 day-incubation, rcDNA measured by Quantigene 2.0 bDNA assay, top concentration 25 μM; read-out: DE-19 bDNA EC50. The procedure, abridged: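 Cytotoxicity (CC50) measured by CellTiter-Glo ATP content in parallel plates, 5,000 cells/well, 4 days. Antiviral EC50 and EC90 derived from HBV rcDNA bDNA levels after 7-day compound exposure (top 25 μM, ½-log 8-point, 0.5% DMSO) of Tet-withdrawn HepDE19 cells at 50,000/well, as % inhibition versus untreated.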
For `Cn1c(Cl)c2c(c1C(=O)Nc1ccc(F)c(Cl)c1)CCC2NC(=O)OCc1cn[nH]n1` (single isomer, unassigned) [Compound 107, (2H-1,2,3-Triazol-4-yl)methyl (3-chloro-1-((3-chloro-4-fluorophenyl)carbamoyl)-2-methyl-2,4,5,6-tetrahydrocyclopenta[c]pyrrol-4-yl)carbamate], the EC50 was determined as 10 nM. With `Cn1cc2c(c1C(=O)Nc1ccc(F)c(Cl)c1)CCC2NC(=O)OCC#CC1CC1` (single isomer, unassigned) [Compound 114, 3-Cyclopropylprop-2-yn-1-yl (1-((3-chloro-4-fluorophenyl)carbamoyl)-2-methyl-2,4,5,6-tetrahydrocyclopenta[c]pyrrol-4-yl)carbamate], the half-maximal effective concentration (EC50) came to 470 nM. With `Cn1cc2c(c1C(=O)Nc1ccc(F)c(Cl)c1)CCC2NC(=O)OCC#CC1CC1` (single isomer, unassigned) [Compound 115, 3-Cyclopropylprop-2-yn-1-yl (1-((3-chloro-4-fluorophenyl)carbamoyl)-2-methyl-2,4,5,6-tetrahydrocyclopenta[c]pyrrol-4-yl)carbamate], the concentration for a half-maximal effect (EC50) worked out at 5400 nM. Same read-out and setting: the value for `Cn1cc(COC(=O)NC2CCc3c2cn(C)c3C(=O)Nc2ccc(F)c(Cl)c2)nn1` (single isomer, unassigned) [Compound 116, (1-Methyl-1H-1,2,3-triazol-4-yl)methyl (1-((3-chloro-4-fluorophenyl)carbamoyl)-2-methyl-2,4,5,6-tetrahydrocyclopenta[c]pyrrol-4-yl)carbamate] was 50 nM.

The assay is the same for the next values; noted with them: read-out: DE-19 bDNA EC50; HepDE19 cells, Tet-free medium, 7 day-incubation, rcDNA measured by Quantigene 2.0 bDNA assay, top concentration 25 μM.
Turning to `Cn1cnc(COC(=O)NC2CCc3c2c(-c2ccccc2)n(C)c3C(=O)Nc2ccc(F)c(Cl)c2)n1` (single isomer, unassigned) [Compound 108, (1-Methyl-1H-1,2,4-triazol-3-yl)methyl (1-((3-chloro-4-fluorophenyl)carbamoyl)-2-methyl-3-phenyl-2,4,5,6-tetrahydrocyclopenta[c]pyrrol-4-yl)carbamate], the EC50 amounted to 5200 nM.

Consider `Cn1cnc(COC(=O)NC2CCc3c2c(-c2ccccc2)n(C)c3C(=O)Nc2ccc(F)c(Cl)c2)n1` (single isomer, unassigned) [Compound 109, (1-Methyl-1H-1,2,4-triazol-3-yl)methyl (1-((3-chloro-4-fluorophenyl)carbamoyl)-2-methyl-3-phenyl-2,4,5,6-tetrahydrocyclopenta[c]pyrrol-4-yl)carbamate], for which the concentration for a half-maximal effect (EC50) amounted to 24000 nM. `CC#CCOC(=O)NC1CCc2c1cn(C)c2C(=O)Nc1ccc(F)c(Cl)c1` (single isomer, unassigned) [Compound 110, But-2-yn-1-yl (1-((3-chloro-4-fluorophenyl)carbamoyl)-2-methyl-2,4,5,6-tetrahydrocyclopenta[c]pyrrol-4-yl)carbamate]: the EC50 was determined as 1500 nM. On to `CC#CCOC(=O)NC1CCc2c1cn(C)c2C(=O)Nc1ccc(F)c(Cl)c1` (single isomer, unassigned) [Compound 111, But-2-yn-1-yl (1-((3-chloro-4-fluorophenyl)carbamoyl)-2-methyl-2,4,5,6-tetrahydrocyclopenta[c]pyrrol-4-yl)carbamate], for which the EC50 is 60 nM. On the same count and under the same terms, the figure for `CCC#CCOC(=O)NC1CCc2c1cn(C)c2C(=O)Nc1ccc(F)c(Cl)c1` (single isomer, unassigned) [Compound 112, Pent-2-yn-1-yl(1-((3-chloro-4-fluorophenyl)carbamoyl)-2-methyl-2,4,5,6-tetrahydrocyclopenta[c]pyrrol-4-yl)carbamate] is 5700 nM. Turning to `CCC#CCOC(=O)NC1CCc2c1cn(C)c2C(=O)Nc1ccc(F)c(Cl)c1` (single isomer, unassigned) [Compound 113, Pent-2-yn-1-yl(1-((3-chloro-4-fluorophenyl)carbamoyl)-2-methyl-2,4,5,6-tetrahydrocyclopenta[c]pyrrol-4-yl)carbamate], the EC50 was 120 nM.
